Experimental data as given in article PMC10004634 (PLOS ONE, 2023).

Legend:
Test in all cases: biochemical
Parameters in all cases: KINOMEscan scanMAX competition binding, DNA-tagged kinases, qPCR read-out, percent control at 300 nM
EGFR(L747-T751del,Sins) = EGFR(L747-T751del,Sins) (Homo sapiens, UniProt P00533, DEL747-750/T751S); conditions: read-out: Percent control / Tirabrutinib
YES = target: T1, YES (Homo sapiens, UniProt P07947); conditions: read-out: Percent control / Tirabrutinib
T1 construct: gene YES1

[1] = target: T2, ABL1(M351T)-phosphorylated (Homo sapiens, UniProt P00519, M351T); conditions: read-out: Percent control / Zanubrutinib
T2 construct: phosphorylated

AKT1 = AKT1 (Homo sapiens, UniProt P31749); conditions: read-out: Percent control / Zanubrutinib
DCAMKL1 = target: T3, DCAMKL1 (Homo sapiens, UniProt O15075); conditions: read-out: Percent control / Zanubrutinib
T3 construct: gene DCLK1

MEK6 = target: T4, MEK6 (Homo sapiens, UniProt P52564); conditions: read-out: Percent control / Zanubrutinib
T4 construct: gene MAP2K6

NEK6 = NEK6 (Homo sapiens, UniProt Q9HC98); conditions: read-out: Percent control / Zanubrutinib
PAK2 = PAK2 (Homo sapiens, UniProt Q13177); conditions: read-out: Percent control / Zanubrutinib
PIK3CA(C420R) = PIK3CA(C420R) (Homo sapiens, UniProt P42336, C420R); conditions: read-out: Percent control / Zanubrutinib
PIK3CB = PIK3CB (Homo sapiens, UniProt P42338); conditions: read-out: Percent control / Zanubrutinib
PIM3 = PIM3 (Homo sapiens, UniProt Q86V86); conditions: read-out: Percent control / Zanubrutinib
PLK1 = PLK1 (Homo sapiens, UniProt P53350); conditions: read-out: Percent control / Zanubrutinib
RIOK2 = RIOK2 (Homo sapiens, UniProt Q9BVS4); conditions: read-out: Percent control / Zanubrutinib
S6K1 = target: T5, S6K1 (Homo sapiens, UniProt P23443); conditions: read-out: Percent control / Zanubrutinib
T5 construct: gene RPS6KB1

SNARK = target: T6, SNARK (Homo sapiens, UniProt Q9H093); conditions: read-out: Percent control / Zanubrutinib
T6 construct: gene NUAK2

[2] = target: T7, ABL1(Q252H)-nonphosphorylated (Homo sapiens, UniProt P00519, Q252H); conditions: read-out: Percent control / Acalabrutinib
T7 construct: nonphosphorylated

CAMK2G = CAMK2G (Homo sapiens, UniProt Q13555); conditions: read-out: Percent control / Acalabrutinib
CDC2L2 = target: T8, CDC2L2 (Homo sapiens, UniProt Q9UQ88); conditions: read-out: Percent control / Acalabrutinib
T8 construct: gene CDK11A

CDK3 = CDK3 (Homo sapiens, UniProt Q00526); conditions: read-out: Percent control / Acalabrutinib
NDR2 = target: T9, NDR2 (Homo sapiens, UniProt Q9Y2H1); conditions: read-out: Percent control / Acalabrutinib
T9 construct: gene STK38L

PYK2 = target: T10, PYK2 (Homo sapiens, UniProt Q14289); conditions: read-out: Percent control / Acalabrutinib
T10 construct: gene PTK2B

DAPK3 = DAPK3 (Homo sapiens, UniProt O43293); conditions: read-out: Percent control / Ibrutinib
MYO3B = MYO3B (Homo sapiens, UniProt Q8WXR4); conditions: read-out: Percent control / Ibrutinib
MYO3B, sequence (Q8WXR4 whole entry): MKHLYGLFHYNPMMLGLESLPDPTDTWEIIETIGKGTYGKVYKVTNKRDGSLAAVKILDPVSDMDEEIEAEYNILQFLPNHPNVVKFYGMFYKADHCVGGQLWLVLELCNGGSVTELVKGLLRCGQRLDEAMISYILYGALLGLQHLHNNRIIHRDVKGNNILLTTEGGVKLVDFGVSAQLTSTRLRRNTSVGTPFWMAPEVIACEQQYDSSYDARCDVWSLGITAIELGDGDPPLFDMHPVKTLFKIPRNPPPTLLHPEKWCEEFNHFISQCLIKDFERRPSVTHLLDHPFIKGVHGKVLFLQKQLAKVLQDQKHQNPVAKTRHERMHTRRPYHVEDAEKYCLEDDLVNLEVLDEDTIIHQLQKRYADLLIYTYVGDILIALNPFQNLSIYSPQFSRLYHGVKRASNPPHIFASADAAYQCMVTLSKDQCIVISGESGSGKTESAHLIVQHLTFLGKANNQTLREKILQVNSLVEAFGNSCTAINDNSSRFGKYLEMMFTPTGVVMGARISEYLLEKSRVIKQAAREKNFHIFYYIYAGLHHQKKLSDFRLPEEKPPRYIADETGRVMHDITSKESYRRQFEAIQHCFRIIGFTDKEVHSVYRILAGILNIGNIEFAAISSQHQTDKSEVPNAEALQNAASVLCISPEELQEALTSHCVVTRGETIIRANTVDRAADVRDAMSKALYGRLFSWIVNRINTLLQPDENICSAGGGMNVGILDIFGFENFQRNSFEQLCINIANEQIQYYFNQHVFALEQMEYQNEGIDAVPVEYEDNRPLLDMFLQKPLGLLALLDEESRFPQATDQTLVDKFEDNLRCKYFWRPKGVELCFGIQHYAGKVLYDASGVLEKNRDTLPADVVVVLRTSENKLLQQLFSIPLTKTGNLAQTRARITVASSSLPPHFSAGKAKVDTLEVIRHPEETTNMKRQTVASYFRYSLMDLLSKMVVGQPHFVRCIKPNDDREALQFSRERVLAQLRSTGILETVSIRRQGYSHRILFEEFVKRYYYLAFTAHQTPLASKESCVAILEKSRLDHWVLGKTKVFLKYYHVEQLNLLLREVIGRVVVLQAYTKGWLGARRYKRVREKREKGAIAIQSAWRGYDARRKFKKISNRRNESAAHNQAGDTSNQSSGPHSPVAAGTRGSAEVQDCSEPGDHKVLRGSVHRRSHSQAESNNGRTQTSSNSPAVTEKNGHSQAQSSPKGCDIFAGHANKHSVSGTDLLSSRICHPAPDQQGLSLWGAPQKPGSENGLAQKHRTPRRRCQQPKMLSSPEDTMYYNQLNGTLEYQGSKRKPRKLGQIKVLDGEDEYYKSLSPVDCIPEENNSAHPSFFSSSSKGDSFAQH

DAPK3, sequence (O43293 whole entry): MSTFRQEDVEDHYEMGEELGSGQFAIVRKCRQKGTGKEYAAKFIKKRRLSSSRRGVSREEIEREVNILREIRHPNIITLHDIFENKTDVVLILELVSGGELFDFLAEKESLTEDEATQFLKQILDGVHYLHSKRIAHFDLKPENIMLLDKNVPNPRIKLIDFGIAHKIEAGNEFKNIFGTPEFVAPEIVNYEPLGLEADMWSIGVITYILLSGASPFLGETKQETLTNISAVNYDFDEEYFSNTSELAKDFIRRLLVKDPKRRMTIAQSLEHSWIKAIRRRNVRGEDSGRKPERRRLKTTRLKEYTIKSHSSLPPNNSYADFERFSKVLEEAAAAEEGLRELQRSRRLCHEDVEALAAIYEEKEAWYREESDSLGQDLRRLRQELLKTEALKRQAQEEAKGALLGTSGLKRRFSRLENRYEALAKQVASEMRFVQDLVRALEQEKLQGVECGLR
T3 sequence (O15075 whole entry): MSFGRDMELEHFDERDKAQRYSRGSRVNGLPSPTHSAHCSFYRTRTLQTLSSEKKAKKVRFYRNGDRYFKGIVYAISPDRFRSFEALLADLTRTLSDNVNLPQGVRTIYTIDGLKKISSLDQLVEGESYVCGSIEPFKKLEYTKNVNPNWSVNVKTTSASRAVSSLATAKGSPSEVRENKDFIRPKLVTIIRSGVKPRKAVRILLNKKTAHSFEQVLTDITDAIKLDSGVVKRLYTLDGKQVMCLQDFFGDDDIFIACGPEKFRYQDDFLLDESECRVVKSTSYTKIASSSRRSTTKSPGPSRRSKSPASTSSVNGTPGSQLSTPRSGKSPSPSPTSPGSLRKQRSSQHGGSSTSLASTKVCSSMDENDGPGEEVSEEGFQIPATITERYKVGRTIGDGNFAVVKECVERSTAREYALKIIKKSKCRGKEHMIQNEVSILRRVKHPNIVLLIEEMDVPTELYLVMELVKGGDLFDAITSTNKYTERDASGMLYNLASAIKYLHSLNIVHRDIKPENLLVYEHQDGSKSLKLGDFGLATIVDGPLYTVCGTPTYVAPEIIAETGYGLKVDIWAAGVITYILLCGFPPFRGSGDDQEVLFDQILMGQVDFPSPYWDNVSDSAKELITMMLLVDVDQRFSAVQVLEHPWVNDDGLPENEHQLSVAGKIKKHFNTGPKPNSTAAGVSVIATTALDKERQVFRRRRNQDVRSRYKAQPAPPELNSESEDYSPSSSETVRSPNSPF
RIOK2, sequence (Q9BVS4 whole entry): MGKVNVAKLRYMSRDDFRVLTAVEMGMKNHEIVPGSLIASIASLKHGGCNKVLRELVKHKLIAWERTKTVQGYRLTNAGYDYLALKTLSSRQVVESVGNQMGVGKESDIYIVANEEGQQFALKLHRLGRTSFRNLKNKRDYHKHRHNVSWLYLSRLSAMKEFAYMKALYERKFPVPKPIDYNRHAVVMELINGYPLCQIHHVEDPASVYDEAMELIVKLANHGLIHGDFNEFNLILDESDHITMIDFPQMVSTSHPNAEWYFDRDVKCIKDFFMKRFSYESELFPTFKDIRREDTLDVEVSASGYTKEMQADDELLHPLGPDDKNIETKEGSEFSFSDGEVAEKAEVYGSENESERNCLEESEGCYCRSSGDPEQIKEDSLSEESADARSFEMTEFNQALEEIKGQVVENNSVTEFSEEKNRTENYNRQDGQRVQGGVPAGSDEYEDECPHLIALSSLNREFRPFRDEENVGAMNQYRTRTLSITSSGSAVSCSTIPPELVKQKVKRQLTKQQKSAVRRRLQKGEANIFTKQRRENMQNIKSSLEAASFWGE
NEK6, sequence (Q9HC98 whole entry): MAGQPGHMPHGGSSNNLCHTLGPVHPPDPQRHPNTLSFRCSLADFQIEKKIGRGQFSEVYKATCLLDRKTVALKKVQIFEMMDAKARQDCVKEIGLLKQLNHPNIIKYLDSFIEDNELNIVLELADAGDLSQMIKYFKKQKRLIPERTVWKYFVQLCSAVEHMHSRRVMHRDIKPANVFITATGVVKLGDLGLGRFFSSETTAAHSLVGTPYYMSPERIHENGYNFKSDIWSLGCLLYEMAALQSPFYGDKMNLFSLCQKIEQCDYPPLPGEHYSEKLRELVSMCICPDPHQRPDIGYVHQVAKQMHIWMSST
T6 sequence (Q9H093 whole entry): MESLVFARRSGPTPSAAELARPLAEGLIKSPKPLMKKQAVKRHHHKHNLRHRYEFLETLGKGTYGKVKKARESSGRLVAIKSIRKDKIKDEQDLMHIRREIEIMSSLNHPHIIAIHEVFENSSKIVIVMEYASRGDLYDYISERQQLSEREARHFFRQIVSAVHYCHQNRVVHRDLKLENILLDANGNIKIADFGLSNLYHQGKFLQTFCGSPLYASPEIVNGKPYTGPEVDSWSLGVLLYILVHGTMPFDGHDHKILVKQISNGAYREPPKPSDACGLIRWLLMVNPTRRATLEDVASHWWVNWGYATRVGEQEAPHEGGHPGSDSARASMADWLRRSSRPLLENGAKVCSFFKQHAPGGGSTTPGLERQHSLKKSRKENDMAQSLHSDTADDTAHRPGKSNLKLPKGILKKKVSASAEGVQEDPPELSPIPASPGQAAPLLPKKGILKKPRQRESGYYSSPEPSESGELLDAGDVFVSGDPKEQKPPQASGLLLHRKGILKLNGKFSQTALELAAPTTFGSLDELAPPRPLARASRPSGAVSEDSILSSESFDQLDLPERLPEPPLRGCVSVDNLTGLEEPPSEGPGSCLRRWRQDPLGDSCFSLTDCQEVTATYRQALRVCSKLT
T10 sequence (Q14289 whole entry): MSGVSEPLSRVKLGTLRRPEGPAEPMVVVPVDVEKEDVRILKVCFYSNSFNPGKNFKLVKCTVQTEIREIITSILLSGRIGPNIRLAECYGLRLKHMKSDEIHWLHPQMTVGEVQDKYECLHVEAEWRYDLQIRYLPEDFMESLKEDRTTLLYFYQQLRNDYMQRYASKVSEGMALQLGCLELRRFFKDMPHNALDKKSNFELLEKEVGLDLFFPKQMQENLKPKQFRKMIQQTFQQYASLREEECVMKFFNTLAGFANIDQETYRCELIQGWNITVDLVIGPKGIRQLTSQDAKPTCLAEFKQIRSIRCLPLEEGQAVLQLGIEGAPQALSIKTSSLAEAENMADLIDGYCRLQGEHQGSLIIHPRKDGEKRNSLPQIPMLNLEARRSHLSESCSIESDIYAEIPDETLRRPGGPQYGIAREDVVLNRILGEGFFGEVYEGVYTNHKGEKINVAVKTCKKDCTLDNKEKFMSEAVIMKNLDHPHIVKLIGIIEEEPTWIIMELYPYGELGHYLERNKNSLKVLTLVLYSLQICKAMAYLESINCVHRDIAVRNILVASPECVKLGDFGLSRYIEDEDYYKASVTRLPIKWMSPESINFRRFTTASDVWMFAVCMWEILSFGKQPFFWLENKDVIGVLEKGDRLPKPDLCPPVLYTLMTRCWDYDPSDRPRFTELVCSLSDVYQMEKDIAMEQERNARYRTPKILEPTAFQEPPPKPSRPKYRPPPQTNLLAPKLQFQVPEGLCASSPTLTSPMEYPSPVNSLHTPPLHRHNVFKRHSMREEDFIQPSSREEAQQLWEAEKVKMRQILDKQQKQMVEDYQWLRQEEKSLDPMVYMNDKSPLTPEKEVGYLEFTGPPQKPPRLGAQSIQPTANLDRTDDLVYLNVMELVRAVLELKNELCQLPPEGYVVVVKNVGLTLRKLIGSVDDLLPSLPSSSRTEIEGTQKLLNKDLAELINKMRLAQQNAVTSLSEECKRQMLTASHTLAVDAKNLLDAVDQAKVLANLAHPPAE

Question: Which remaining binding at 0.3 µM (EGFR(L747-T751del,Sins)) does the source give for `CC#CC(=O)N1CC[C@@H](n2c(=O)n(-c3ccc(Oc4ccccc4)cc3)c3c(N)ncnc32)C1` [Tirabrutinib] here?
Answer: 80%

Question: What about the remaining binding at 0.3 µM (YES) of the same compound?
Answer: 71%

Question: How did the remaining binding at 0.3 µM [1] turn out when `C=CC(=O)N1CCC([C@@H]2CCNc3c(C(N)=O)c(-c4ccc(Oc5ccccc5)cc4)nn32)CC1` [Zanubrutinib] was run?
Answer: 83%

Question: And the remaining binding at 0.3 µM (AKT1)?
Answer: 100%

Question: What about the remaining binding at 0.3 µM (DCAMKL1) of the same compound?
Answer: 100%

Question: And the remaining binding at 0.3 µM (MEK6)?
Answer: 75%

Question: And the remaining binding at 0.3 µM (NEK6)?
Answer: 88%

Question: And the remaining binding at 0.3 µM (PAK2)?
Answer: 83%

Question: And the remaining binding at 0.3 µM (PIK3CA(C420R))?
Answer: 67%

Question: And the remaining binding at 0.3 µM (PIK3CB)?
Answer: 98%

Question: And the remaining binding at 0.3 µM (PIM3)?
Answer: 84%

Question: And the remaining binding at 0.3 µM (PLK1)?
Answer: 100%

Question: And the remaining binding at 0.3 µM (RIOK2)?
Answer: 94%

Question: And the remaining binding at 0.3 µM (S6K1)?
Answer: 88%

Question: What about the remaining binding at 0.3 µM (SNARK) of the same compound?
Answer: 97%

Question: `CC#CC(=O)N1CCC[C@H]1c1nc(-c2ccc(C(=O)Nc3ccccn3)cc2)c2c(N)nccn12` [Acalabrutinib] was tested. Which remaining binding at 0.3 µM [2] did it give?
Answer: 84%

Question: And the remaining binding at 0.3 µM (CAMK2G)?
Answer: 95%

Question: What about the remaining binding at 0.3 µM (CDC2L2) of the same compound?
Answer: 82%

Question: What about the remaining binding at 0.3 µM (CDK3) of the same compound?
Answer: 88%

Question: And the remaining binding at 0.3 µM (NDR2)?
Answer: 99%

Question: And the remaining binding at 0.3 µM (PYK2)?
Answer: 89%

Question: How did the remaining binding at 0.3 µM (DAPK3) turn out when `C=CC(=O)N1CCC[C@@H](n2nc(-c3ccc(Oc4ccccc4)cc3)c3c(N)ncnc32)C1` [Ibrutinib] was run?
Answer: 92%

Question: And the remaining binding at 0.3 µM (MYO3B)?
Answer: 80%
